Data taken from US12319664B2, “Herbicidally active 3-phenylisoxazoline-5-carboxamides of cyclopentenylcarboxylic acid derivatives” (Bayer Aktiengesellschaft, priority 2018, dated 2025).

Columns and labels:
[1] = system: ALOMY; assay: Pre-emergence herbicidal action against ALOMY; format: in vivo, Alopecurus myosuroides; settings: application rate 80 g/ha, scored visually after about 3 weeks vs untreated controls (100% = plants have died, 0% = like control plants)
How it was run: (§1)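 Seeds of weeds and crops sown in pots and covered with soil; WP or EC formulations sprayed onto the soil surface as aqueous suspension/emulsion with 0.5% additive at 600 l/ha water. Greenhouse growth; visual % activity versus untreated controls scored after about 3 weeks (100% = plants dead, 0% = like control).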

[2] = system: AVEFA; assay: Pre-emergence herbicidal action against AVEFA; format: in vivo, Avena fatua; settings: application rate 80 g/ha, scored visually after about 3 weeks vs untreated controls (100% = plants have died, 0% = like control plants)
How it was run: as §1

[3] = system: CYPES; assay: Pre-emergence herbicidal action against CYPES; format: in vivo; settings: application rate 80 g/ha, scored visually after about 3 weeks vs untreated controls (100% = plants have died, 0% = like control plants)
Text: (§2) 1. Pre-emergence herbicidal action against harmful plants and crop plant compatibility Seeds of monocotyledonous and dicotyledonous weed plants and crop plants are placed in plastic or wood-fibre pots and covered with soil. The compounds of the invention, formulated in the form of wettable powders (WP) or as emulsion concentrates (EC), are then applied onto the surface of the covering soil as aqueous suspension or emulsion with addition of 0.5% additive at a water application rate of 600 l/ha (converted). After the treatment, the pots are placed in a greenhouse and kept under good growth conditions for the trial plants. After about 3 weeks, the effect of the preparations is scored visually in comparison with untreated controls as percentages. For example, 100% activity=the plants have died, 0% activity=like control plants.

[4] = system: ECHCG; assay: Pre-emergence herbicidal action against ECHCG; format: in vivo, Echinochloa crus-galli; settings: application rate 80 g/ha, scored visually after about 3 weeks vs untreated controls (100% = plants have died, 0% = like control plants)
How it was run: as §1

[5] = system: LOLRI; assay: Pre-emergence herbicidal action against LOLRI; format: in vivo, Lolium rigidum; settings: application rate 80 g/ha, scored visually after about 3 weeks vs untreated controls (100% = plants have died, 0% = like control plants)
How it was run: as §1

[6] = system: SETVI; assay: Pre-emergence herbicidal action against SETVI; format: in vivo, Setaria viridis; settings: application rate 80 g/ha, scored visually after about 3 weeks vs untreated controls (100% = plants have died, 0% = like control plants)
How it was run: as §1

[7] = system: AMARE; assay: Pre-emergence herbicidal action against AMARE; format: in vivo, Amaranthus retroflexus; settings: application rate 80 g/ha
How it was run: as §1

[8] = system: MATIN; assay: Pre-emergence herbicidal action against MATIN; format: in vivo, Matricaria inodora; settings: application rate 80 g/ha, scored visually after about 3 weeks vs untreated controls (100% = plants have died, 0% = like control plants)
Text: as §2, with “control plants. [table]” for “control plants.”

[9] = system: PHBPU; assay: Pre-emergence herbicidal action against PHBPU; format: in vivo, Pharbitis purpurea; settings: application rate 80 g/ha
How it was run: as §1

[10] = system: POLCO; assay: Pre-emergence herbicidal action against POLCO; format: in vivo, Polygonum convolvulus; settings: application rate 80 g/ha
How it was run: as §1

[11] = system: STEME; assay: Pre-emergence herbicidal action against STEME; format: in vivo, Stellaria media; settings: application rate 80 g/ha
How it was run: as §1

[12] = system: VIOTR; assay: Pre-emergence herbicidal action against VIOTR; format: in vivo, Viola tricolor; settings: application rate 80 g/ha
How it was run: as §1

[13] = system: HORMU; assay: Pre-emergence herbicidal action against HORMU; format: in vivo, Hordeum murinum; settings: application rate 80 g/ha
How it was run: as §1

[14] = system: ALOMY; assay: Post-emergence herbicidal action against ALOMY; format: in vivo, Alopecurus myosuroides; settings: application rate 80 g/ha, rated visually after about 3 weeks
How it was run: (§3)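 Greenhouse post-emergence test: compound sprayed onto green plant parts at one-leaf stage as WP or EC preparation with 0.5% additive, water rate 600 l/ha. Percent activity scored by eye after roughly 3 weeks, where 0% matches controls and 100% means death.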

[15] = system: AVEFA; assay: Post-emergence herbicidal action against AVEFA; format: in vivo, Avena fatua; settings: application rate 80 g/ha, rated visually after about 3 weeks
How it was run: as §3

[16] = system: ECHCG; assay: Post-emergence herbicidal action against ECHCG; format: in vivo, Echinochloa crus-galli; settings: application rate 80 g/ha, rated visually after about 3 weeks
How it was run: as §3

[17] = system: LOLRI; assay: Post-emergence herbicidal action against LOLRI; format: in vivo, Lolium rigidum; settings: application rate 80 g/ha, rated visually after about 3 weeks
How it was run: as §3

[18] = system: PHBPU; assay: Post-emergence herbicidal action against PHBPU; format: in vivo, Pharbitis purpurea; settings: application rate 80 g/ha, rated visually about 3 weeks after treatment
How it was run: as §3

[19] = system: STEME; assay: Post-emergence herbicidal action against STEME; format: in vivo, Stellaria media; settings: application rate 80 g/ha, rated visually about 3 weeks after treatment
How it was run: as §3

[20] = system: HORMU; assay: Post-emergence herbicidal action against HORMU; format: in vivo, Hordeum murinum; settings: application rate 80 g/ha
How it was run: as §3

CCOC(=O)[C@@H]1C=C[C@H](NC(=O)C2(C)CC(c3cccc(F)c3)=NO2)C1 (some centres unmarked) [Example I-006]
Herbicidal action against [%] ALOMY [1]: 100%
Herbicidal action against [%] AVEFA [2]: 90%
Herbicidal action against [%] CYPES [3]: 100%
Herbicidal action against [%] ECHCG [4]: 100%
Herbicidal action against [%] LOLRI [5]: 100%
Herbicidal action against [%] SETVI [6]: 100%
Herbicidal action against [%] AMARE [7]: 100%
Herbicidal action against [%] MATIN [8]: 90%
Herbicidal action against [%] PHBPU [9]: 90%
Herbicidal action against [%] POLCO [10]: 80%
Herbicidal action against [%] STEME [11]: 100%
Herbicidal action against [%] VIOTR [12]: 90%
Herbicidal action against [%] HORMU [13]: 90%
Herbicidal action against [%] ALOMY [14]: 80%
Herbicidal action against [%] AVEFA [15]: 80%
Herbicidal action against [%] ECHCG [16]: 80%
Herbicidal action against [%] LOLRI [17]: 80%
Herbicidal action against [%] PHBPU [18]: 80%
Herbicidal action against [%] STEME [19]: 80%
Herbicidal action against [%] HORMU [20]: 80%
